Columns and labels:
[1] = test system: Mouse embryonic fibroblasts (NIH 3T3 cells); assay: ATP levels in MEFs (luciferase bioluminescence in live cells; standard ATP assay on lysates); format: cell-based; details: for Total ATP levels in MEFs: MEFs exposed to each of PLLA, PDLA and stereocomplex PLA extracts plus inhibitor; for increased bioenergetic (ATP) levels: amorphous or crystalline PLA extract-treated fibroblasts plus inhibitor, spatiotemporal and dose-dependent
Experimental: Breakdown products of PLA (hereafter “extracts”) were generated in serum-containing media and used after twelve days of incubation in a shaker at 37° C. The in vitro degradation mimics PLA degradation in vivo. Immune cells were maintained in the PLA extracts for twelve days. BMDMs derived from C57BL/6J mice (Jackson Laboratories) of 3-4 months were used. Mouse embryonic fibroblasts (NIH 3T3 cells, hereafter “MEFs”) were stably transfected with a Sleeping Beauty transposon plasmid (pLuBIG) encoding blasticidin resistance linked to eGFP, and luciferase. Bioluminescence of the fibroblasts served as in indicator of ATP levels. Cell viability was measured using the crystal violet staining assay at room temperature. 50 μL media containing cells is incubated with 150 μL of 99.9% methanol for 15 minutes. 100 μL of 0.5% crystal violet (25% methanol) is added for 20 minutes. Each well is emptied and washed twice with 200 μL phosphate buffered saline for 2 minutes. Absorbance (optical density) was acquired at 570 nm using the SpectraMax M3 Spectrophotometer (Molecular Devices) and SoftMax Pro software (ver. 7.0.2).
To exclude the possibility that changing luciferase expression (by transcription or translation) was responsible for observed bioenergetic changes, wild-type cells were lysed after exposure to PLA extract. Controlled amounts of luciferase and D-luciferin were added to the standard ATP assay. By day 12, there was a 1.9-and 2.3-fold increase in ATP levels among cells exposed to crystalline and amorphous PLA extract, respectively (FIG. 2). To exclude the possibility that PLA extracts affect the biochemical reaction underlying bioenergetic measurements, lysed fibroblasts were exposed to D-luciferin, luciferase and control or PLA extract.
ATP levels in live cells were assessed by bioluminescence on the IVIS Spectrum in vivo imaging system (PerkinElmer) after addition of 150 μg/mL D-luciferin (PerkinElmer). For lysed cells, the standard ATP/ADP kits (Sigma-Aldrich) were used according to manufacturer's instructions.

primary BMDMs [2] = assay: Seahorse assays (OCR, ECAR, PER) in primary BMDMs; format: cell-based, mouse; details: for metabolic reprogramming: BMDMs exposed to amorphous or crystalline PLA extract, dose-dependent; for ECAR / OCR / PER: Example 2, BMDMs exposed to PLA extracts of varied stereochemistries plus inhibitor
Text: To determine the metabolic pathways responsible for the observed bioenergetic changes, Seahorse assays were used to measure oxygen consumption rate (OCR), extracellular acidification rate (ECAR) and lactate-linked proton efflux rate (PER) in a customized medium (pH 7.4). Basal measurements of OCR, ECAR, and PER were obtained in real time using the Seahorse XFe-96 Extracellular Flux Analyzer (Agilent Technologies). Prior to running the assay, cell culture medium was washed with and replaced by the Seahorse XF DMEM medium (pH 7.4) supplemented with 25 mM D-glucose and 4 mM glutamine. The Seahorse plates were equilibrated in a non-CO2 incubator for an hour prior to the assay. The Seahorse ATP rate and cell energy phenotype assays were run according to manufacturer's instruction and all reagents for the Seahorse assays were sourced from Agilent Technologies. Wave software (Version 2.6.1) was used to export Seahorse data directly as means±standard deviation (SD).
Seahorse assays measures ECAR as an index of glycolytic flux, OCR as an index of oxidative phosphorylation and PER as an index of monocarboxylate transporter function in live cells; and are used to assess for metabolic reprogramming. Primary BMDMs exposed to amorphous PLA extract were metabolically altered, showing a 2-fold increase in oxidative phosphorylation (OCR; FIG. 10), 3.5-fold increase in glycolytic flux (ECAR; FIG. 11) and 3.5-fold increase in monocarboxylate transporter activity (PER; FIG. 12) in comparison to untreated BMDMs.

primary BMDMs [3] = assay: Crystal violet cell viability / cell number assay in primary BMDMs; format: cell-based, mouse; details: BMDMs treated with amorphous or crystalline PLA extract
Experimental: Breakdown products of PLA (hereafter “extracts”) were generated in serum-containing media and used after twelve days of incubation in a shaker at 37° C. […] Immune cells were maintained in the PLA extracts for twelve days. BMDMs derived from C57BL/6J mice (Jackson Laboratories) of 3-4 months were used. Mouse embryonic fibroblasts (NIH 3T3 cells, hereafter “MEFs”) were stably transfected with a Sleeping Beauty transposon plasmid (pLuBIG) encoding blasticidin resistance linked to eGFP, and luciferase. Bioluminescence of the fibroblasts served as in indicator of ATP levels. Cell viability was measured using the crystal violet staining assay at room temperature. 50 μL media containing cells is incubated with 150 μL of 99.9% methanol for 15 minutes. 100 μL of 0.5% crystal violet (25% methanol) is added for 20 minutes. Each well is emptied and washed twice with 200 μL phosphate buffered saline for 2 minutes. Absorbance (optical density) was acquired at 570 nm using the SpectraMax M3 Spectrophotometer (Molecular Devices) and SoftMax Pro software (ver. 7.0.2).

[4] = test system: primary macrophages (BMDMs); assay: Cytokine and chemokine protein levels in macrophage supernatants (MILLIPLEX multiplex, IL-6 ELISA); format: cell-based, mouse; details: for abnormally increased levels of IL-1β / abnormally increased levels of IL-6 / abnormally increased levels of MCP-1 / abnormally increased levels of TNF-α: macrophages exposed to PLA extract plus inhibitor
Experimental: Cytokine and chemokine levels were measured using a MILLIPLEX MAP mouse magnetic bead multiplex kit (MilliporeSigma) to assess for IL-6, MCP-1, TNF-a, IL-1b, IL-4, IL-10, IFN-1 and 1L-13 protein expression in supernatants. Data was acquired using Luminex 200 (Luminex Corporation) by the xPONENT software (Version 3.1, Luminex Corporation). […] For statistical analyses, those values were expressed as 3.1 pg/mL. Values exceeding the dynamic range of the assay, in accordance with manufacturer's instruction, were excluded. Additionally, IL-6 ELISA kits (RayBiotech) for supernatants were used according to manufacturer's instructions.

[5] = In-vitro studies indicating effective concentration of 2DG; format: cell-based
Experimental: Amorphous PLA was compounded with 2DG at 190° C. for 3 mins in a DSM 15 cc mini-extruder (DSM Xplore) and pelletizer (Leistritz Extrusion Technology). Our in-vitro studies indicate 1 mM 2DG to be an effective concentration. Accordingly, we estimated that 18 mg of 2DG in 10 g of amorphous PLA will approximate effective concentrations after accounting for potential thermal degradation of 2DG, converting mM to w/w values. […] To exclude the effect of melt-blending as a confounder in our studies, amorphous PLA controls were processed under the same thermal conditions to make “reprocessed” amorphous PLA. Pellets from melt-blending were made into 1.75 mm diameter filaments using an extruder (Filabot EX2) at 170° C. with air set at 93. For surgical implantation, amorphous PLA filaments were cut into 1 mm lengths; four biomaterials were subcutaneously implanted on the dorsum (back) of each mouse, with two cranially (2.5 cm apart) and two caudally (2.5 cm apart).

[6] = macrophages exposed to the PLLA and PDLA extracts plus inhibitor
[7] = BMDMs, prolonged (day 7) exposure to L-lactic acid

Row | Structure (SMILES) | Total ATP levels in MEFs [1] | increased bioenergetic (ATP) levels [1] | metabolic reprogramming (primary BMDMs [2]) | ECAR (primary BMDMs [2]) | OCR (primary BMDMs [2]) | PER (primary BMDMs [2]) | cell viability (primary BMDMs [3]) | abnormally increased levels of IL-1β [4] | abnormally increased levels of IL-6 [4] | abnormally increased levels of MCP-1 [4] | abnormally increased levels of TNF-α [4] | IL-10 levels [4, 6] | further results
1 | O=C(C=Cc1cccnc1)c1ccncc1 [3PO, 3-(3-pyridinyl)-1-(4-pyridinyl)-2-propen-1-one] | decreased | inhibited | inhibited | dose-dependent decrease | dose-dependent decrease | dose-dependent decrease | selectively reduced | modulated | modulated | modulated | modulated |  | cytokine values ([4]; in some experiments): < 3.2 pg/mL
2 | O=CC[C@@H](O)[C@H](O)[C@H](O)CO [2DG, 2-deoxyglucose] | decreased | inhibited | inhibited | dose-dependent decrease | dose-dependent decrease | dose-dependent decrease | selectively reduced | modulated | modulated | modulated | modulated | increased | effective concentration [5]: 1 mM
3 | NOCC(=O)O [aminooxyacetic acid] | decreased | inhibited | inhibited | dose-dependent decrease | dose-dependent decrease | dose-dependent decrease | selectively reduced | modulated | modulated | modulated | modulated | increased | increase in IL-10 expression ([4]; amorphous PLA extract plus inhibitor, relative to macrophages exposed to PLA extract): 3.4 fold; IL-10 expression ([4]; crystalline PLA extract plus inhibitor, relative to macrophages exposed to PLA extract): unchanged; IL-10 levels ([4]; macrophages treated with stereocomplex PLA extracts plus inhibitor): further increased
4 | C[C@H](O)C(=O)O [L-lactic acid] |  |  |  |  |  |  |  |  |  |  |  |  | increase in glycolytic flux (ECAR) (primary BMDMs [2]; [7]): 2.8 fold; increase in monocarboxylate transporter function (PER) (primary BMDMs [2]; [7]): 2.8 fold; increase in oxidative phosphorylation (OCR) (primary BMDMs [2]; [7]): 2.3 fold; increase in IL-6 protein expression ([4]; compared to untreated macrophages): 2.3 fold
